Biological target: T1, Slc12a8 (Mus musculus, UniProt Q8VI23)
T1 sequence (Q8VI23 1-705): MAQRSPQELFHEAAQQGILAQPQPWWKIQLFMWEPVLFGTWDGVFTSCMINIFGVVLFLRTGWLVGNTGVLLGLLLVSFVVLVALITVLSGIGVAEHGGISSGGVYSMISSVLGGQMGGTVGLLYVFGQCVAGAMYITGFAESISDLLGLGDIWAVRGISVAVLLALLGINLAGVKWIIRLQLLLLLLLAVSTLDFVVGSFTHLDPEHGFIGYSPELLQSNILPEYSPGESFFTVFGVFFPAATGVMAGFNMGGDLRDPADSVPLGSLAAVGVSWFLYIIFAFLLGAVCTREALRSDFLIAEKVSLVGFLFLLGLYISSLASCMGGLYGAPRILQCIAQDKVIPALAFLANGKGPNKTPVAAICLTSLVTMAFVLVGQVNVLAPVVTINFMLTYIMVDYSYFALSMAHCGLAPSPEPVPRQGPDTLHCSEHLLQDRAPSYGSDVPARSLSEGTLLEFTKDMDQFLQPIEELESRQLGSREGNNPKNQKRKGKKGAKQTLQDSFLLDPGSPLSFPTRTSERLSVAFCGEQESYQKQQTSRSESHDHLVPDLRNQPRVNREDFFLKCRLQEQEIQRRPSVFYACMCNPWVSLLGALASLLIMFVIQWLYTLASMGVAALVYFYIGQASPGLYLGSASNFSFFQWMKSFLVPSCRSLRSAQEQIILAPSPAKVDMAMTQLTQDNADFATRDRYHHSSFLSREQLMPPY
Assay: 3H-NMN uptake into Slc12a8-OE proteoliposomes with cold NMN competition
Type: biochemical

**Q.** With NC(=O)c1ccc[n+]([C@@H]2O[C@H](COP(=O)([O-])O)[C@@H](O)[C@H]2O)c1 [NMN, Nicotinamide mononucleotide] as the molecule, how does the IC50 read?
**A.** 22.8 ± 3.6 µM

From article PMC6530925 (Nature metabolism, 2019)
